Assay results: patent US7550476B2, “Condensed polycyclic compounds” (Mitsubishi Tanabe Pharma Corporation, priority 2001, dated 2009)

Tested on: not given
Test: not given
Conditions: not given

melting point | Compound
198 to 203 °C (dec.) | COc1cc2c(cc1OC)C(c1ccccc1)N1CCN(Cc3ccccc3)CC1C2.Cl.Cl (centres unmarked)
229 to 233 °C (dec.) | COc1cc2c(cc1OC)C(c1ccccc1)N1CCN(C(=O)c3ccccc3)CC1C2.Cl (centres unmarked)

Further lines, the molecule ahead of its results:

Compound | melting point
COc1cc2c(cc1OC)C(c1ccccc1)N1CCN(CSC)CC1C2.Cl.Cl (centres unmarked) | 217 to 220 °C (dec.)
COc1cc2c(cc1OC)C(c1ccccc1)N1CCN(CC(=O)O)CC1C2.Cl.Cl (centres unmarked) | 214 to 217 °C (dec.)
COc1cc2cc(COC(C)=O)c(COC(C)=O)c(-c3ccnc(C4C(=O)CCCC4=O)c3)c2cc1OC | 210 to 213 °C
COc1cc2cc(CO)c(CO)c(-c3ccnc(C4C(=O)CCCC4=O)c3)c2cc1OC | > 220 °C
COc1cc2c(cc1OC)C(c1ccc(OC(C)C)cc1)N1CCNCC1C2.Cl.Cl (centres unmarked) | 180 to 185 °C (dec.)

Tested on: mouse (BDF1 strain, male)
Test: Single-dose subcutaneous toxicity in mouse
Type: in vivo
Conditions: single dose 100 mg/kg subcutaneously, n=3, checked for 1 day
Protocol: Further, the compounds [I] and compounds [I-C] of the present invention have the merit of being less toxic, and highly safe as a medicine. For example, 8,9-dimethoxy-6-phenyl-1,3,4,6,11,11a-hexahydro-2H-pyrazino[1,2-b]-isoquinoline was subcutaneously administered to a mouse (BDF1 strain, male, n=3) in a single dose (100 mg/kg) and the progress was checked for 1 day.

Compound | death
COc1cc2c(cc1OC)C(c1ccccc1)N1CCNCC1C2 (centres unmarked) [Compound A, 8,9-dimethoxy-6-phenyl-1,3,4,6,11,11a-hexahydro-2H-pyrazino[1,2-b]isoquinoline] | no death was observed
